Data from patent US20240325351A1, “METHOD OF ADMINISTRATION” (Cybin UK Ltd., priority 2023, published 2024).
Where “and” joins values, the source holds several entries; their conditions need not be identical. Equal values may be shown once.

Legend:
[1] = test system: patients with moderate-severe Major Depressive Disorder; test: MADRS in unblinded study of single IV dose of DMT fumarate (NCT05553691); type: in vivo, human; conditions: for MADRS score: individual patients; for MADRS score / Remission (MADRS score ≤10) / Response (≥50% reduction in MADRS score from baseline): fumarate
Description: (§1) An unblinded study of a single dose of N,N-dimethyltryptamine [DMT] fumarate in patients currently taking a selective serotonin reuptake inhibitor (SSRI) for their depression, but for whom the SSRI is not fully relieving their depression is ongoing (ClinicalTrials.gov Identifier: NCT05553691). The study comprises two groups:
(§2) “Test Cohort”: Patients who are currently on a stable treatment course of SSRIs, which have been ineffective in fully relieving their depression symptoms (SSRI prescribed outside of study). Patients were administered a single dose of DMT fumarate by intravenous infusion; and
(§3) “Control Cohort”: Patients who are not currently taking any pharmacological treatment for their depression (control group). Patients were administered a single dose of DMT fumarate by intravenous infusion.
(§4) Patients were recruited with moderate-severe Major Depressive Disorder (“MDD”) as defined by a Hamilton Depression Rating Scale (HAM-D) score of ≥14. Efficacy was assessed using the Montgomery-Asberg Depression Rating scale (MADRS) to measure any change in patients' depression symptoms from baseline (Day 0). Additional exploratory endpoints include the Beck Depression Inventory (BDI) to assess patients' self-reported depression, and the State-Trait Anxiety Inventory (STAI-T) to assess patients' self-reported anxiety.
(§5) DMT fumarate is administered by intravenous infusion on Day 1.

[2] = test system: patients with moderate-severe Major Depressive Disorder; test: BDI-II (Beck Depression Inventory), same study; type: in vivo, human; conditions: for BDI-II score: individual patients, fumarate
Description: as §1, §2, §3, §4, §5

[3] = test system: patients with moderate-severe Major Depressive Disorder; test: STAI-T (State-Trait Anxiety Inventory), same study; type: in vivo, human; conditions: for STAI-T score: individual patients, fumarate
Description: as §1, §2, §3, §4, §5

[4] = test system: patients with moderate-severe Major Depressive Disorder; test: Safety & Tolerability, same study; type: in vivo, human
Description: as §1, §2, §3, §5
The administration of DMT fumarate was well-tolerated by all patients in both the test and the control cohorts, with no apparent differences between cohorts.

[5] = test system: major depressive disorder; conditions: in vivo; cited from earlier work
[6] = 33 mg; cited from earlier work
[7] = Control Cohort, n=5, Day 8 vs Day 0
[8] = Control Cohort, n=5, Day 15 vs Day 0
[9] = Control Cohort, n=5, Day 29 vs Day 0
[10] = Test Cohort (on SSRI), n=12, Day 8
[11] = Test Cohort (on SSRI), n=12, Day 8 vs Day 0
[12] = Test Cohort (on SSRI), n=12, Day 15
[13] = Test Cohort (on SSRI), n=12, Day 15 vs Day 0
[14] = Test Cohort (on SSRI), n=12, Day 29
[15] = Test Cohort (on SSRI), n=12, Day 29 vs Day 0
[16] = Test Cohort (on stable SSRI), Day 15
[17] = Test Cohort (on stable SSRI), Day 29

Structure (SMILES): CN(C)CCc1c[nH]c2ccccc12.O=C(O)/C=C/C(=O)O [DMT fumarate, N,N-dimethyltryptamine fumarate]
- MADRS score ([1]; Control Cohort (no pharmacological treatment), Day 8): 7 and 21 (2×) and 24 and 9
- MADRS score ([1]; Control Cohort (no pharmacological treatment), Day 15): 8 and 18 and 21 and 26 and 7
- MADRS score ([1]; Control Cohort (no pharmacological treatment), Day 29): 17 and 18 and 15 and 30 and 0
- MADRS Mean ([1]; Control Cohort, n=5, Day 8): 16.4
- MADRS Mean % change from Baseline [1, 7]: −53.1%
- MADRS Mean ([1]; Control Cohort, n=5, Day 15): 16.0
- MADRS Mean % change from Baseline [1, 8]: −54.2%
- MADRS Mean ([1]; Control Cohort, n=5, Day 29): 16.0
- Number of participants in remission (MADRS ≤10) ([1]; Control Cohort, n=5, Day 29): One
- Remission (MADRS score ≤10) ([1]; Control Cohort, n=5, Day 29): 20%
- Response (≥50% reduction in MADRS score from baseline) ([1]; Control Cohort, n=5, Day 29): 80%
- MADRS Mean % change from Baseline [1, 9]: −54.8%
- MADRS Mean [1, 10]: 6.7
- MADRS Mean % change from Baseline [1, 11]: −78.1%
- MADRS Mean [1, 12]: 6.0
- MADRS Mean % change from Baseline [1, 13]: −81.2%
- MADRS Mean [1, 14]: 3.0
- Number of participants in remission (MADRS ≤10) [1, 14]: 11 participants
- Remission (MADRS score ≤10) [1, 14]: 92%
- Response (≥50% reduction in MADRS score from baseline) [1, 14]: 100%
- MADRS Mean % change from Baseline [1, 15]: −90.2%
- Number of participants in remission (MADRS ≤10) ([1]; Test Cohort (on SSRI), n=12, all other time points (Day 8, Day 15)): 10 participants
- MADRS score ([1]; Test Cohort (on stable SSRI), Day 8, single IV infusion Day 1): 1 (3×) and 0 (2×) and 27 and 21 and 10 and 7 and 2 (2×) and 8
- MADRS score [1, 16]: 1 and 0 (4×) and 27 and 15 and 8 and 3 and 5 and 4 and 9
- MADRS score [1, 17]: 11 and 0 and 8 and 1 and 6 and 7 and 2
- BDI-II score ([2]; Control Cohort, Day 15): 20 and 17 (2×) and 22 and 8
- BDI-II score ([2]; Control Cohort, Day 29): 12 and 13 and 16 and 31 and 2
- BDI-II Mean ([2]; Control Cohort, n=5, Day 15): 16.8
- BDI-II Mean % change from Baseline [2, 8]: −54%
- BDI-II Mean ([2]; Control Cohort, n=5, Day 29): 14.8
- BDI-II Mean % change from Baseline [2, 9]: −59%
- BDI-II Mean [2, 12]: 5.1
- BDI-II Mean % change from Baseline [2, 13]: −84%
- BDI-II Mean [2, 14]: 3.1
- BDI-II Mean % change from Baseline [2, 15]: −88%
- BDI-II score [2, 16]: 0 (3×) and 3 (2×) and 29 and 6 and 5 (2×) and 1 (2×) and 8
- BDI-II score [2, 17]: 0 (5×) and 4 and 11 and 7 (2×) and 1 and 2 and 5
- STAI-T score ([3]; Control Cohort, Day 8): 60 and 40 and 44 and 50 and 38
- STAI-T score ([3]; Control Cohort, Day 15): 58 and 46 and 39 and 52 and 41
- STAI-T score ([3]; Control Cohort, Day 29): 51 and 49 and 47 and 59 and 32
- STAI-T Mean ([3]; Control Cohort, n=5, Day 8): 46.4
- STAI-T Mean % change from Baseline [3, 7]: −28.9%
- STAI-T Mean ([3]; Control Cohort, n=5, Day 15): 47.2
- STAI-T Mean % change from Baseline [3, 8]: −27.6%
- STAI-T Mean ([3]; Control Cohort, n=5, Day 29): 47.6
- STAI-T Mean % change from Baseline [3, 9]: −27.2%
- STAI-T Mean [3, 10]: 39.8
- STAI-T Mean % change from Baseline [3, 11]: −33.6%
- STAI-T Mean [3, 12]: 37.3
- STAI-T Mean % change from Baseline [3, 13]: −37.5%
- STAI-T Mean [3, 14]: 35.2
- STAI-T Mean % change from Baseline [3, 15]: −41.0%
- STAI-T score ([3]; Test Cohort (on stable SSRI), Day 8): 47 and 40 (2×) and 66 and 49 and 34 (2×) and 26 and 46 and 28 and 29 and 38
- STAI-T score [3, 16]: 44 and 30 and 62 and 45 and 33 (2×) and 40 (2×) and 42 and 25 and 22 and 32
- STAI-T score [3, 17]: 45 and 34 (2×) and 41 and 43 and 28 and 40 and 32 (2×) and 44 and 26 and 23
- Tolerability ([4]; all patients in both test and control cohorts, no apparent differences between cohorts): well-tolerated
- Drug-related serious adverse events ([4]; both cohorts): No drug-related serious adverse events reported
- Resolution of drug-related AEs ([4]; both cohorts): majority of drug-related AEs were resolved during the dosing visit
- Severity of drug-related AEs ([4]; both cohorts): mild or moderate
- Number of drug-related adverse events (AEs) ([4]; control cohort): 3
- Number of drug-related adverse events (AEs) ([4]; test cohort (on SSRI)): 8

Structure (SMILES): CN(C)CCc1c[nH]c2ccccc12 [N,N-dimethyltryptamine, 2-(1H-indol-3-yl)-N,N-dimethylethanamine]
- Durability of antidepressant effect [5]: three months or more

Structure (SMILES): CC(C)N(CCc1c[nH]c2cccc(OC(=O)CCCC(=O)O)c12)C(C)C [iprocin-4-glutarate, N,N diisopropyltryptamine-4-glutarate]
- Mean duration of the subjective experience [6]: 3.7 h
